Source: paper PMC12022909, “A Multicomponent Reaction-Based Platform Opens New Avenues in Aryl Hydrocarbon Receptor Modulation” (ACS Central Science, 2025)

Columns and labels:
[1] = system: IL-19, CXCL1, and CCL26 gene expression; test: IL-13 triggered proinflammatory gene expression in HaCaT keratinocytes; assay type: cell-based, human; conditions: IL-13 10 ng/mL
Excerpt: As AhR activation is beneficial for pathologies including chronic inflammatory skin diseases,[74] we assessed the potential anti-inflammatory role of our ligands by cotreating HaCaT keratinocytes with the proinflammatory cytokine IL-13 and a selection of 6-ICZs (Figure 7a).
Figure 7 Anti-inflammatory effect of the 6-ICZs. (a) Structure of the tested compounds and the control tapinarof (T). (b) IL-13 triggered gene expression of proinflammatory IL-19, CXCL1, and CCL26 expressed as fold of 0.1% DMSO control. HaCaT keratinocytes were treated with IL-13 (10 ng/mL) for 24 h, then either untreated (−) or treated with positive control T (1 μM) or 6-ICZs (1 μM). n = 3–4. For statistical analysis an unpaired t-test was performed and data are shown as mean ± SEM (*, p ≤ 0.05 compared to IL-13 (10 ng/mL)).
Cell culture and treatment
Human HaCaT and HaCaT-AhR-deficient keratinocytes were cultured in DMEM low glucose (1 g/l) medium (PAN Biotech, Aidenbach, Germany) supplemented with 10% (v/v) fetal bovine serum (PAN Biotech) and 1% (v/v) antibiotics/antimycotics (PAN Biotech). […]
Quantitative real-time PCR
The isolation of total RNA, reverse transcription, and quantitative real-time PCR was conducted as described previously.[26] […]
AhR-dependent reporter gene activity was determined in human HepG2 cells stably transfected with an XRE -harboring luciferase plasmid (XRE-HepG2 cells). […]

[2] = Solubility in the growing media during cytotoxicity testing; assay type: physicochemical; conditions: concentration of 100 µM
Method: A phosphatidylserine exposure was used to determine cell viability. Cells were washed with PBS, pelleted, and then incubated with annexin binding buffer containing Annexin V-APC (Life Technologies) for 15 min in the dark. Then, samples were analyzed by flow cytometry using FACSCanto II and FACSDiva (BD Biosciences, Franklin Lakes, NJ, USA). Data represents the percentage of non - apoptotic cells (Ann -APC-).
The cytotoxicity of a selection of the synthesized compounds was assessed after 24 hours of treatment in two human cell lines, Jurkat and HEK293T, coming from either tumoral T-cell lymphocytes or non-tumoral embryonic kidney fibroblasts, respectively. […]
the pro-apoptotic activity was not significant below 10 µM for most compounds in both cell lines, except for 5i, 5k and 5l in both cell lines, as well as 9a in Jurkat and 5e HEK293T cells (Figure S35A-B).
Moreover, the cytotoxicity of compounds 4d, 5b, 5h, 8, 10, and 12d at a higher concentration (100 µM) was assessed in both cell lines, Jurkat and HEK293T. The cytotoxicity of compounds 5b, 5h, and 12d could not be properly tested as the compounds were not soluble […]
effects observed for compound 4d in Jurkat cells and compound 8 in HEK293T cells (Figure S35C).
Figure S35. A) Jurkat and B) HEK293T cells were treated with 1 and 10 µM doses of the corresponding compound for 24 hours. Indicated doses of fluorizoline were used as a positive control of cell death. C) Jurkat and HEK293T cells were treated with 100 µM of the corresponding compound for 24 hours. Viability was measured by flow cytometry, and it is expressed as the mean ± SEM (n = 3) of the percentage of non -apoptotic cells (Ann-APC-). * p < 0.05, ** p < 0.01 *** p < […]
(1 picture or pasted object on this page, not shown here)

CCOc1c2[nH]c3ccccc3c2cc2[nH]c3ccccc3c12 [compound 8, 6-ethoxy-ICZ]
anti-inflammatory potency compared with positive control tapinarof ([1]; 1 μM): slightly more potent than the positive control tapinarof | IL-13-triggered induction of IL-19, CXCL1, and CCL26 gene expression ([1]; 24 h, compound 1 μM): significantly reduced | solubility in the growing media [2]: slight turbidity
